In the NIST ThermoML archive (doi:10.1016/j.fluid.2014.07.036):
Numbers after ± are expanded uncertainties.

Assay: refractive index (other wavelength) (dimensionless); xn = mol fraction of the nth substance listed
Details: 85 kPa, Liquid, Wavelength=632.8 nm, minimum deviation angle

CCCCCCCC[n+]1ccn(C)c1.F[B-](F)(F)F [1-methyl-3-octylimidazolium tetrafluoroborate] + CCCCCO
Details	refractive index
281.39 K, x1 = 0.012	1.4139 ± 0.0003
281.39 K, x1 = 0.339	1.4262 ± 0.0003
282.13 K, x1 = 0.014	1.4137 ± 0.0003
282.13 K, x1 = 0.33	1.4257 ± 0.0003
282.87 K, x1 = 0.015	1.4135 ± 0.0003
282.87 K, x1 = 0.32	1.4252 ± 0.0003
283.57 K, x1 = 0.018	1.4134 ± 0.0003
283.57 K, x1 = 0.315	1.4248 ± 0.0003
284.24 K, x1 = 0.019	1.4132 ± 0.0003
284.24 K, x1 = 0.305	1.4243 ± 0.0003
284.89 K, x1 = 0.02	1.413 ± 0.0003
284.89 K, x1 = 0.295	1.4238 ± 0.0003
285.51 K, x1 = 0.021	1.4128 ± 0.0003
285.51 K, x1 = 0.285	1.4233 ± 0.0003
286.09 K, x1 = 0.021	1.4126 ± 0.0003
286.09 K, x1 = 0.278	1.4229 ± 0.0003
286.64 K, x1 = 0.023	1.4125 ± 0.0003
286.64 K, x1 = 0.268	1.4224 ± 0.0003
287.13 K, x1 = 0.025	1.4124 ± 0.0003
287.13 K, x1 = 0.257	1.4219 ± 0.0003
287.58 K, x1 = 0.026	1.4123 ± 0.0003
287.58 K, x1 = 0.246	1.4214 ± 0.0003
287.98 K, x1 = 0.029	1.4123 ± 0.0003
287.98 K, x1 = 0.238	1.421 ± 0.0003
288.34 K, x1 = 0.03	1.4122 ± 0.0003
288.34 K, x1 = 0.23	1.4206 ± 0.0003
288.64 K, x1 = 0.032	1.4122 ± 0.0003
288.64 K, x1 = 0.224	1.4203 ± 0.0003
288.88 K, x1 = 0.034	1.4122 ± 0.0003
288.88 K, x1 = 0.217	1.42 ± 0.0003
289.09 K, x1 = 0.035	1.4122 ± 0.0003
289.09 K, x1 = 0.214	1.4198 ± 0.0002
289.29 K, x1 = 0.038	1.4123 ± 0.0003
289.29 K, x1 = 0.207	1.4195 ± 0.0003
289.44 K, x1 = 0.039	1.4123 ± 0.0003
289.44 K, x1 = 0.203	1.4193 ± 0.0002
289.63 K, x1 = 0.041	1.4123 ± 0.0003
289.63 K, x1 = 0.196	1.419 ± 0.0002
289.73 K, x1 = 0.042	1.4123 ± 0.0003
289.73 K, x1 = 0.191	1.4188 ± 0.0002
289.86 K, x1 = 0.044	1.4124 ± 0.0003
289.86 K, x1 = 0.19	1.4187 ± 0.0003
289.98 K, x1 = 0.047	1.4125 ± 0.0003
289.98 K, x1 = 0.186	1.4185 ± 0.0002
290.07 K, x1 = 0.05	1.4126 ± 0.0003
290.07 K, x1 = 0.181	1.4183 ± 0.0003
290.16 K, x1 = 0.052	1.4127 ± 0.0003
290.16 K, x1 = 0.179	1.4182 ± 0.0003
290.25 K, x1 = 0.055	1.4128 ± 0.0003
290.25 K, x1 = 0.175	1.418 ± 0.0003
290.31 K, x1 = 0.059	1.413 ± 0.0003
290.31 K, x1 = 0.173	1.4179 ± 0.0002
290.38 K, x1 = 0.062	1.4131 ± 0.0003
290.38 K, x1 = 0.168	1.4177 ± 0.0002
290.43 K, x1 = 0.066	1.4133 ± 0.0003
290.43 K, x1 = 0.166	1.4176 ± 0.0003
290.49 K, x1 = 0.069	1.4134 ± 0.0003
290.49 K, x1 = 0.161	1.4174 ± 0.0003
290.49 K, x1 = 0.598	1.4284 ± 0.0002
290.5 K, x1 = 1	1.4338 ± 0.0003
290.52 K, x1 = 0.071	1.4135 ± 0.0003
290.52 K, x1 = 0.156	1.4172 ± 0.0003
290.56 K, x1 = 0.076	1.4137 ± 0.0003
290.56 K, x1 = 0.1	1.4148 ± 0.0002
290.56 K, x1 = 0.151	1.417 ± 0.0003
290.59 K, x1 = 0.797	1.4313 ± 0.0003
290.59 K, x1 = 0.898	1.4327 ± 0.0003
290.6 K, x1 = 0.078	1.4138 ± 0.0003
290.6 K, x1 = 0.147	1.4168 ± 0.0003
290.61 K, x1 = 0.08	1.4139 ± 0.0003
290.61 K, x1 = 0.144	1.4167 ± 0.0003
290.65 K, x1 = 0.085	1.4141 ± 0.0003
290.65 K, x1 = 0.137	1.4164 ± 0.0003
290.66 K, x1 = 0.087	1.4142 ± 0.0003
290.66 K, x1 = 0.132	1.4162 ± 0.0003
290.67 K, x1 = 0.089	1.4143 ± 0.0003
290.67 K, x1 = 0.091	1.4144 ± 0.0003
290.67 K, x1 = 0.128	1.416 ± 0.0003
290.67 K, x1 = 0.13	1.4161 ± 0.0003
290.67 K, x1 = 0.697	1.4299 ± 0.0003
290.68 K, x1 = 0.094	1.4145 ± 0.0003
290.68 K, x1 = 0.096	1.4146 ± 0.0003
290.68 K, x1 = 0.098	1.4147 ± 0.0003
290.68 K, x1 = 0.118	1.4156 ± 0.0003
290.68 K, x1 = 0.121	1.4157 ± 0.0003
290.68 K, x1 = 0.123	1.4158 ± 0.0003
290.68 K, x1 = 0.125	1.4159 ± 0.0003
290.76 K, x1 = 0.498	1.4264 ± 0.0002
290.93 K, x1 = 0.396	1.4243 ± 0.0002
290.95 K, x1 = 0.2	1.4185 ± 0.0002
291.87 K, x1 = 1	1.4334 ± 0.0003
292.22 K, x1 = 0.898	1.4322 ± 0.0003
292.28 K, x1 = 0.598	1.4279 ± 0.0002
292.3 K, x1 = 0.797	1.4308 ± 0.0003
292.33 K, x1 = 0.498	1.4259 ± 0.0002
292.39 K, x1 = 0.697	1.4294 ± 0.0003
292.67 K, x1 = 0.396	1.4237 ± 0.0002
292.68 K, x1 = 0.2	1.4179 ± 0.0002
292.95 K, x1 = 0.1	1.414 ± 0.0002
293.43 K, x1 = 1	1.433 ± 0.0003
294.01 K, x1 = 0.498	1.4253 ± 0.0002
294.06 K, x1 = 0.898	1.4317 ± 0.0003
294.07 K, x1 = 0.598	1.4273 ± 0.0002
294.09 K, x1 = 0.797	1.4303 ± 0.0003
294.12 K, x1 = 0.697	1.4289 ± 0.0003
294.44 K, x1 = 0.396	1.423 ± 0.0002
294.76 K, x1 = 0.2	1.4171 ± 0.0002
295.04 K, x1 = 0.1	1.4132 ± 0.0002
295.05 K, x1 = 1	1.4325 ± 0.0003
295.73 K, x1 = 0.498	1.4248 ± 0.0002
295.84 K, x1 = 0.598	1.4268 ± 0.0002
295.89 K, x1 = 0.898	1.4312 ± 0.0003
295.91 K, x1 = 0.797	1.4299 ± 0.0003
295.92 K, x1 = 0.697	1.4283 ± 0.0003
296.31 K, x1 = 0.396	1.4224 ± 0.0002
296.55 K, x1 = 0.2	1.4165 ± 0.0002
296.68 K, x1 = 1	1.4321 ± 0.0003
297.32 K, x1 = 0.1	1.4124 ± 0.0002
297.61 K, x1 = 0.797	1.4294 ± 0.0003
297.68 K, x1 = 0.697	1.4278 ± 0.0003
297.69 K, x1 = 0.498	1.4241 ± 0.0002
297.71 K, x1 = 0.598	1.4262 ± 0.0002
297.84 K, x1 = 0.898	1.4306 ± 0.0003
298.31 K, x1 = 0.396	1.4217 ± 0.0002
298.41 K, x1 = 1	1.4316 ± 0.0003
298.67 K, x1 = 0.2	1.4158 ± 0.0002
299.26 K, x1 = 0.1	1.4116 ± 0.0002
299.58 K, x1 = 0.697	1.4273 ± 0.0003
299.58 K, x1 = 0.797	1.4288 ± 0.0003
299.74 K, x1 = 0.498	1.4235 ± 0.0002
299.74 K, x1 = 0.598	1.4256 ± 0.0002
299.92 K, x1 = 0.898	1.43 ± 0.0003
300.25 K, x1 = 1	1.4311 ± 0.0003
300.61 K, x1 = 0.396	1.4209 ± 0.0002
300.68 K, x1 = 0.2	1.4151 ± 0.0002
301.73 K, x1 = 0.1	1.4107 ± 0.0002
302.04 K, x1 = 1	1.4305 ± 0.0003

CCCCCCO [hexan-1-ol] + CCCCCCCC[n+]1ccn(C)c1.F[B-](F)(F)F
x2 = 0
Details	refractive index
293.99 K	1.4165 ± 0.0002
295.93 K	1.4156 ± 0.0002
297.36 K	1.4151 ± 0.0002
298.94 K	1.4145 ± 0.0002
300.69 K	1.4138 ± 0.0002
303.34 K	1.4128 ± 0.0002
304.77 K	1.4122 ± 0.0002
306.24 K	1.4117 ± 0.0002

CCCCCO [pentan-1-ol] + CCCCCCCC[n+]1ccn(C)c1.F[B-](F)(F)F
x2 = 0
Details	refractive index
290.68 K	1.4096 ± 0.0002
292.95 K	1.4087 ± 0.0002
295.03 K	1.4079 ± 0.0002
297.17 K	1.4071 ± 0.0002
299.35 K	1.4062 ± 0.0002
301.73 K	1.4053 ± 0.0002
